Measurements from patent publication US20240166652A1, “MODULATORS OF THE INTEGRATED STRESS PATHWAY” (Calico Life Sciences LLC, priority 2017, published 2024).

What follows are compounds tested on ATF4 luciferase reporter in HEK293T cells (assay: ATF4-Luc assay (ATF4 luciferase reporter, tunicamycin-treated HEK293T cells)). Conditions: Homo sapiens, HEK-293T; HEK293T cells carrying the ATF4 luciferase reporter, 1 μg/mL tunicamycin, 7 hours.
Format: cell-based, human
With `Cc1cc(OCC(=O)NC23CC(NC(=O)COc4ccc(Cl)c(F)c4)(C2)C3)cc(C)n1` [Compound 220, 2-(4-chloro-3-fluorophenoxy)-N-(3-{2-[(2,6-dimethylpyridin-4-yl)oxy]acetamido}bicyclo[1.1.1]pentan-1-yl)acetamide] the EC50 was 0.5 to 2 µM. Compound `O=C(COc1ccc(C(F)F)cc1)NC12CC(NC(=O)COc3ccc(Cl)c(F)c3)(C1)C2` [Compound 388, 2-(4-chloro-3-fluorophenoxy)-N-(3-{2-[4-(difluoromethyl)phenoxy]acetamido}bicyclo[1.1.1]pentan-1-yl)acetamide] has an EC50 of 0.01 to 0.05 µM. `Cc1ccc(OCC(=O)NC23CC(NC(=O)COc4ccc(Cl)c(F)c4)(C2)C3)cc1` [Compound 460, 2-(4-chloro-3-fluorophenoxy)-N-{3-[2-(4-methylphenoxy)acetamido]bicyclo[1.1.1]pentan-1-yl}acetamide] showed an EC50 of 0.01 to 0.05 µM. Compound `O=C(COc1ccc(Cl)c(F)c1)NC12CC(NC(=O)[C@H](O)c3ccc(Cl)cc3)(C1)C2` [Compound 315, (2R)—N-{3-[2-(4-chloro-3-fluorophenoxy)acetamido]bicyclo[1.1.1]pentan-1-yl}-2-(4-chlorophenyl)-2-hydroxyacetamide] has an EC50 of 0.5 to 2 µM. In the case of `O=C(COc1ccc(Cl)c(Cl)c1)NC12CC(NC(=O)OCCCc3cccc(Cl)c3)(C1)C2` [Compound 174, 3-(3-chlorophenyl)propyl {3-[2-(3,4-dichlorophenoxy)acetamido]-bicyclo[1.1.1]pentan-1-yl}carbamate], the EC50 is reported as 0.25 to 0.5 µM. `O=C(/C=C/c1cccc(Cl)c1)NC12CC(NC(=O)COc3ccc(Cl)c(F)c3)(C1)C2` [Compound 350, (2E)-N-{3-[2-(4-chloro-3-fluorophenoxy)acetamido]bicyclo[1.1.1]pentan-1-yl}-3-(3-chlorophenyl)prop-2-enamide] was tested, and the EC50 was 0.05 to 0.25 µM. `O=C(COc1ccccc1)NC12CC(NC(=O)COc3ccc(Cl)c(F)c3)(C1)C2` [Compound 398, 2-(4-chloro-3-fluorophenoxy)-N-[3-(2-phenoxyacetamido)bicyclo[1.1.1]pentan-1-yl]acetamide] showed an EC50 of 0.01 to 0.05 µM. `O=C(COc1ccc(F)cc1)NC12CCC(NC(=O)COc3ccc(F)c(C(F)(F)F)c3)(CC1)[C@@H](O)C2` [Compound 831, 2-(4-fluorophenoxy)-N-[(3S)-4-{2-[4-fluoro-3-(trifluoromethyl)phenoxy]acetamido}-3-hydroxybicyclo[2.2.2]octan-1-yl]acetamide] gave an EC50 of less than 0.01 µM. In the case of `O=C(COCc1n[nH]c(=O)o1)NC12CC(NC(=O)COc3ccc(Cl)c(F)c3)(C1)C2` [Compound 218, 2-(4-chloro-3-fluorophenoxy)-N-(3-{2-[(5-oxo-4,5-dihydro-1,3,4-oxadiazol-2-yl)methoxy]acetamido}bicyclo[1.1.1]pentan-1-yl)acetamide], the EC50 is reported as 0.5 to 2 µM. For `O=C(COc1ccc(F)c(F)c1)NC12CCC(NC(=O)COc3ccc(F)c(C(F)(F)F)c3)(CC1)[C@@H](O)C2` [Compound 829, 2-(3,4-difluorophenoxy)-N-[(3S)-4-{2-[4-fluoro-3-(trifluoromethyl)phenoxy]acetamido}-3-hydroxybicyclo[2.2.2]octan-1-yl]acetamide], the EC50 was less than 0.01 µM. Compound `O=C(COc1ccc(F)cc1)NC12CCC(NC(=O)COc3ccc(Cl)cc3)(CC1)[C@@H](O)C2` [Compound 616, 2-(4-chlorophenoxy)-N-{(2S)-4-[2-(4-fluorophenoxy)acetamido]-2-hydroxybicyclo[2.2.2]octan-1-yl}acetamide] has an EC50 of less than 0.01 µM. `O=C(COc1ccc(Cl)c(F)c1)NC12CCC(NC(=O)COc3ccc(Cl)c(F)c3)(CC1)C(O)C2O` (centres unmarked) [Compound 548, N,N′-(2,3-dihydroxybicyclo[2.2.2]octane-1,4-diyl)bis[2-(4-chloro-3-fluorophenoxy)acetamide]] showed an EC50 of less than 0.01 µM. Compound `O=C(COCCc1ccc(F)cc1)NC12CC(NC(=O)COc3ccc(Cl)c(F)c3)(C1)C2` [Compound 134, 2-(4-chloro-3-fluorophenoxy)-N-(3-{2-[2-(4-fluorophenyl)ethoxy]acetamido}-bicyclo[1.1.1]pentan-1-yl)acetamide] has an EC50 of 0.05 to 0.25 µM. With `O=C(COc1ccc(Cl)c(F)c1)NC12CCC(NC(=O)COc3ccc(Cl)c(F)c3)(CC1)CC2` [Compound 100, N,N′-(bicyclo[2.2.2]octane-1,4-diyl)bis[2-(4-chloro-3-fluorophenoxy)acetamide]] the EC50 was less than 0.01 µM. `O=C(COc1ccc(F)c(Cl)c1)NC12CCC(NC(=O)COc3ccc(Cl)c(Cl)c3)(CC1)[C@@H](O)C2` [Compound 544, 2-(3-chloro-4-fluorophenoxy)-N-{(3S)-4-[2-(3,4-dichlorophenoxy)acetamido]-3-hydroxybicyclo[2.2.2]octan-1-yl}acetamide] showed an EC50 of less than 0.01 µM. Compound `O=C(COCCc1ccc(F)cc1)NC12CC(NC(=O)COc3ccc(Cl)c(Cl)c3)(C1)C2` [Compound 149, 2-(3,4-dichlorophenoxy)-N-(3-{2-[2-(4-fluorophenyl)ethoxy]acetamido}-bicyclo[1.1.1]pentan-1-yl)acetamide] has an EC50 of 0.01 to 0.05 µM. In the case of `O=C(COc1cnc(OC2CCC2)nc1)NC12CCC(NC(=O)COc3ccc(Cl)c(F)c3)(CC1)[C@@H](O)C2` [Compound 636, 2-(4-chloro-3-fluorophenoxy)-N-[(2S)-4-(2-{[2-(cyclobutyloxy)pyrimidin-5-yl]oxy}acetamido)-2-hydroxybicyclo[2.2.2]octan-1-yl]acetamide], the EC50 is reported as 0.25 to 0.5 µM. With `Cc1cc(OCC(=O)NC23CCC(NC(=O)COc4ccc(Cl)c(F)c4)(CC2)C[C@@H]3O)cc(C)c1C` [Compound 503, 2-(4-chloro-3-fluorophenoxy)-N-{(3S)-3-hydroxy-4-[2-(3,4,5-trimethylphenoxy)acetamido]bicyclo[2.2.2]octan-1-yl]acetamide] the EC50 was 0.01 to 0.05 µM. With `O=C(COc1ccc(Cl)c(F)c1)NC12CCCC(NC(=O)OCc3ccccc3)(C1)C2` [Compound 181, benzyl {5-[2-(4-chloro-3-fluorophenoxy)acetamido]bicyclo[3.1.1]heptan-1-yl}carbamate] the EC50 was greater than 2 µM. `CS(=O)(=O)c1ccc(OCC(=O)NC23CC(NC(=O)COc4ccc(Cl)c(F)c4)(C2)C3)cn1` [Compound 257, 2-(4-chloro-3-fluorophenoxy)-N-[3-(2-{[6-(methanesulfonyl)pyridin-3-yl]oxy}acetamido)bicyclo[1.1.1]pentan-1-yl]acetamide] showed an EC50 of 0.25 to 0.5 µM. For `O=C(COc1ccc(Cl)c(Cl)c1)NC12CC(NC(=O)COc3ccc(Cl)cc3F)(C1)C2` [Compound 122, 2-(4-chloro-2-fluorophenoxy)-N-{3-[2-(3,4-dichlorophenoxy)acetamido]-bicyclo[1.1.1]pentan-1-yl}acetamide], the EC50 was less than 0.01 µM. For `O=C(COc1ccc(Cl)c(F)c1)NC12CCC(NC(=O)COc3ccc(F)c(OC(F)F)c3)(CC1)[C@@H](O)C2` [Compound 795, 2-(4-chloro-3-fluorophenoxy)-N-[(3S)-4-{2-[3-(difluoromethoxy)-4-fluorophenoxy]acetamido}-3-hydroxybicyclo[2.2.2]octan-1-yl]acetamide], the EC50 was less than 0.01 µM. `O=C(COc1ccc(Cl)c(F)c1)NC12CC(NCC(O)c3ccc(Cl)cc3)(C1)C2` (centres unmarked) [Compound 290, 2-(4-chloro-3-fluorophenoxy)-N-(3-{[2-(4-chlorophenyl)-2-hydroxyethyl]amino}bicyclo[1.1.1]pentan-1-yl)acetamide] showed an EC50 of 0.5 to 2 µM. Compound `O=C(COCc1ccc(-n2cccn2)nc1)NC12CC(NC(=O)COc3ccc(Cl)c(F)c3)(C1)C2` [Compound 280, 2-(4-chloro-3-fluorophenoxy)-N-[3-(2-{[6-(1H-pyrazol-1-yl)pyridin-3-yl]methoxy}acetamido)bicyclo[1.1.1]pentan-1-yl]acetamide] has an EC50 greater than 2 µM. `O=C(COn1nnc2cccnc21)NC12CCC(NC(=O)COc3ccc(Cl)c(F)c3)(CC1)C(=O)N2` [Compound 691, 2-(4-chloro-3-fluorophenoxy)-N-(3-oxo-1-{2-[(3H-[1,2,3]-triazolo[4,5-b]pyridin-3-yl)oxy]acetamido}-2-azabicyclo[2.2.2]octan-4-yl)acetamide] gave an EC50 greater than 2 µM. For `COc1ncc(OCC(=O)NC23CC(NC(=O)COc4ccc(Cl)c(F)c4)(C2)C3)cc1C` [Compound 253, 2-(4-chloro-3-fluorophenoxy)-N-(3-{2-[(6-methoxy-5-methylpyridin-3-yl)oxy]acetamido}bicyclo[1.1.1]pentan-1-yl)acetamide], the EC50 was 0.01 to 0.05 µM. `CC(C)(C)[Si](C)(C)OCCN(C(=O)COc1ccc(Cl)c(F)c1)C12CC(NC(=O)COc3ccc(Cl)c(F)c3)(C1)C2` [Compound 189, N-(2-{[tert-butyl(dimethyl)silyl]oxy}ethyl)-2-(4-chloro-3-fluorophenoxy)-N-{3-[2-(4-chloro-3-fluorophenoxy)acetamido]bicyclo[1.1.1]pentan-1-yl}acetamide] showed an EC50 of 0.5 to 2 µM. `O=C(COc1ccc(Cl)cc1)NC12CCC(NC(=O)COc3ccc(Cl)c(Cl)c3)(CC1)[C@@H](O)C2` [Compound 582, 2-(4-chlorophenoxy)-N-{(3S)-4-[2-(3,4-dichlorophenoxy)acetamido]-3-hydroxybicyclo[2.2.2]octan-1-yl}acetamide] showed an EC50 of less than 0.01 µM. `CC1(O)CC2(NC(=O)COc3ccc(Cl)c(F)c3)CCC1(NC(=O)COc1ccc(C(F)(F)F)nc1)CC2` (centres unmarked) [Compound 338, 2-(4-chloro-3-fluorophenoxy)-N-[3-hydroxy-3-methyl-4-(2-{[6-(trifluoromethyl)pyridin-3-yl]oxy}acetamido)bicyclo[2.2.2]octan-1-yl]acetamide] was tested, and the EC50 was 0.01 to 0.05 µM. Work on `COc1cc(OCC(=O)NC23CCC(NC(=O)COc4ccc(Cl)c(F)c4)(CC2)C[C@@H]3O)nc(SC)n1` [Compound 497, 2-(4-chloro-3-fluorophenoxy)-N-[(3S)-3-hydroxy-4-(2-{[6-methoxy-2-(methylsulfanyl)pyrimidin-4-yl]oxy}acetamido)bicyclo[2.2.2]octan-1-yl]acetamide] yielded an EC50 of 0.5 to 2 µM. In the case of `O=C(COc1ccc2c(c1)OC(F)(F)O2)NC12CC(NC(=O)COc3ccc4c(c3)OC(F)(F)O4)(C1)C2` [Compound 274, N,N′-(bicyclo[1.1.1]pentane-1,3-diyl)bis{2-[(2,2-difluoro-2H-1,3-benzodioxol-5-yl)oxy]acetamide}], the EC50 is reported as less than 0.01 µM. Work on `O=C(COc1ccccn1)NC12CCC(NC(=O)COc3ccc(Cl)c(F)c3)(CC1)[C@@H](O)C2` [Compound 663, 2-(4-chloro-3-fluorophenoxy)-N-[(2S)-2-hydroxy-4-{2-[(pyridin-2-yl)oxy]acetamido}bicyclo[2.2.2]octan-1-yl]acetamide] yielded an EC50 of 0.01 to 0.05 µM.
